For 29 compounds, IC50 results are on record in patent US9655887B2, “Pharmaceutical composition and the use thereof, and application regime of said pharmaceutical composition for on-demand contraception” (BAYER PHARMA AKTIENGESELLSCHAFT, priority 2013, dated 2017).

This assay has as its target EP2 subtype of the human PGE2 receptor (hEP2 receptor) (Homo sapiens, UniProt P43116). In words: cAMP antagonism test, human prostaglandin E2 (subtype EP2) receptor signal. The format is cell-based. The procedure, abridged:
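Cells (625000 cells/ml, mixed with cAMP-d2) were preincubated 20 min at RT with compound ([…]). They were then stimulated 60 min at RT with a 3× PGE2 solution (1.5 nM) in PBS-IBMX and lysed for 20 min. cAMP was read by HTRF as the 665/620 nm ratio ×10000, with antagonism seen as a rise in FRET signal.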

The term IC50 denotes the concentration that gives 50% inhibition.

Chain of EP2 subtype of the human PGE2 receptor (hEP2 receptor) (P43116 whole entry): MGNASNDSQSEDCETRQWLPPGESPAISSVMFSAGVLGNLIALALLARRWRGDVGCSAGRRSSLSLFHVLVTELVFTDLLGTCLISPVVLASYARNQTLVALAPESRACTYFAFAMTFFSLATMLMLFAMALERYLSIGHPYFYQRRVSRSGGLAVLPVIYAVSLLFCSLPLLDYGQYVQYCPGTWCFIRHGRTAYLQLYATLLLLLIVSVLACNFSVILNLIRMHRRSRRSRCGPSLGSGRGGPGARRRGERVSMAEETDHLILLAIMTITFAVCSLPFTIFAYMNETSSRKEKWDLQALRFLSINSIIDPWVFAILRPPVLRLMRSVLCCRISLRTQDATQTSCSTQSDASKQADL

In the case of `Cc1c(C(=O)NCCOC(C)(C)C)ccc2nn(CC3CCN(C(=O)c4ccc(Cl)cc4)CC3)cc12` [Example E81, N-(2-tert-butoxyethyl)-2-{[1-(4-chlorobenzoyl)piperidin-4-yl]methyl}-4-methyl-2H-indazole-5-carboxamide], the IC50 is above 50 nM. `Cc1c(C(=O)NCCOC(C)(C)C)ccc2nn(CC3CCN(C(=O)c4ccc(Oc5ccc(F)cc5)cc4)CC3)cc12` [Example E82, N-(2-tert-butoxyethyl)-2-({1-[4-(4-fluorophenoxy)benzoyl]piperidin-4-yl}methyl)-4-methyl-2H-indazole-5-carboxamide]: the IC50 was above 50 nM. Turning to `Cc1c(C(=O)NCCOC(C)(C)C)ccc2nn(CC3CCN(C(=O)c4ccc(-c5ccc(F)cc5)cc4)CC3)cc12` [Example E83, N-(2-tert-butoxyethyl)-2-({1-[(4′-fluorobiphenyl-4-yl)carbonyl]piperidin-4-yl}methyl)-4-methyl-2H-indazole-5-carboxamide], the half-maximal inhibitory concentration (IC50) is above 50 nM.

The compound `Cc1c(C(=O)NCCOC(C)(C)C)ccc2nn(CC3CCN(C(=O)c4ccc(Oc5ccc(C(F)(F)F)cc5)cc4)CC3)cc12` [Example E84, N-(2-tert-butoxyethyl)-4-methyl-2-[(1-{4-[4-(trifluoromethyl)phenoxy]benzoyl}-piperidin-4-yl)methyl]-2H-indazole-5-carboxamide] gave an IC50 above 50 nM. In turn, `[2H]C([2H])([2H])OC([2H])([2H])C([2H])([2H])NC(=O)c1ccc2nn(CC3CCN(C(=O)c4ccc(Cl)cc4)CC3)cc2c1C` [Example E85, 2-{[1-(4-chlorobenzoyl)piperidin-4-yl]methyl}-4-methyl-N-{2-[(^2H3)methyloxy]-(^2H4)ethyl}-2H-indazole-5-carboxamide] displayed an IC50 above 50 nM.

Compound `[2H]C([2H])([2H])OC([2H])([2H])C([2H])([2H])NC(=O)c1ccc2nn(CC3CCN(C(=O)c4ccc(Oc5ccc(F)cc5)cc4)CC3)cc2c1C` [Example E86, 2-({1-[4-(4-fluorophenoxy)benzoyl]piperidin-4-yl}methyl)-4-methyl-N-{2-[(^2H3)methyloxy](^2H4)ethyl}-2H-indazole-5-carboxamide] showed an IC50 above 50 nM. For `COCCNC(=O)c1ccc2nn(CC3CN(C(=O)c4ccc(Cl)cc4)C3)cc2c1C` [Example E87, 2-{[1-(4-chlorobenzoyl)azetidin-3-yl]methyl}-N-(2-methoxyethyl)-4-methyl-2H-indazole-5-carboxamide], the IC50 is above 50 nM. In the case of `COCCNC(=O)c1ccc2nn(CC3CN(C(=O)c4ccc(SC(F)(F)F)cc4)C3)cc2c1C` [Example E88, N-(2-methoxyethyl)-4-methyl-2-[(1-{4-[(trifluoromethyl)sulphanyl]benzoyl}azetidin-3-yl)methyl]-2H-indazole-5-carboxamide], the IC50 was above 50 nM.

Compound `COCCNC(=O)c1ccc2nn(CC3CN(C(=O)c4ccc(OC(F)(F)F)cc4)C3)cc2c1C` [Example E89, N-(2-methoxyethyl)-4-methyl-2-({1-[4-(trifluoromethoxy)benzoyl]azetidin-3-yl}-methyl)-2H-indazole-5-carboxamide] returned an IC50 above 50 nM.

In turn, `COCCNC(=O)c1ccc2nn(CC3CN(C(=O)c4ccc(C(F)(F)F)cc4F)C3)cc2c1C` [Example E90, 2-({1-[2-fluoro-4-(trifluoromethyl)benzoyl]azetidin-3-yl}methyl)-N-(2-methoxyethyl)-4-methyl-2H-indazole-5-carboxamide] yielded an IC50 above 50 nM. `COCCNC(=O)c1ccc2nn(CC3CN(C(=O)c4ccc(Cl)cc4F)C3)cc2c1C` [Example E91, 2-{[1-(4-chloro-2-fluorobenzoyl)azetidin-3-yl]methyl}-N-(2-methoxyethyl)-4-methyl-2H-indazole-5-carboxamide] returned an IC50 above 50 nM. As for `COCCNC(=O)c1ccc2nn(CC3CN(C(=O)c4ccc(C(F)(F)F)c(F)c4)C3)cc2c1C` [Example E92, 2-({1-[3-fluoro-4-(trifluoromethyl)benzoyl]azetidin-3-yl}methyl)-N-(2-methoxyethyl)-4-methyl-2H-indazole-5-carboxamide], the IC50 was above 50 nM. The compound `COCCNC(=O)c1ccc2nn(CC3CN(C(=O)c4ccc(Cl)c(C(F)(F)F)c4)C3)cc2c1C` [Example E93, 2-({1-[4-chloro-3-(trifluoromethyl)benzoyl]azetidin-3-yl}methyl)-N-(2-methoxyethyl)-4-methyl-2H-indazole-5-carboxamide] came in with an IC50 above 50 nM.

`COCCNC(=O)c1ccc2nn(CC3CN(C(=O)c4ccc(C5CC5)cc4)C3)cc2c1C` [Example E94, 2-{[1-(4-cyclopropylbenzoyl)azetidin-3-yl]methyl}-N-(2-methoxyethyl)-4-methyl-2H-indazole-5-carboxamide] displayed an IC50 above 50 nM. In the case of `COCCNC(=O)c1ccc2nn(CC3CN(C(=O)c4ccc(Oc5ccc(C(F)(F)F)cc5)cc4)C3)cc2c1C` [Example E95, N-(2-methoxyethyl)-4-methyl-2-[(1-{4-[4-(trifluoromethyl)phenoxy]benzoyl}azetidin-3-yl)methyl]-2H-indazole-5-carboxamide], the IC50 was above 50 nM. In turn, `Cc1c(C(=O)NCCOC2CC2)ccc2nn(CC3CN(C(=O)c4ccc(OC(F)(F)F)cc4)C3)cc12` [Example E100, N-[2-(cyclopropyloxy)ethyl]-4-methyl-2-({1-[4-(trifluoromethoxy)benzoyl]azetidin-3-yl}methyl)-2H-indazole-5-carboxamide] had an IC50 above 50 nM. Then `Cc1c(C(=O)NCCOC2CCC2)ccc2nn(CC3CN(C(=O)c4ccc(OC(F)(F)F)cc4)C3)cc12` [Example E101, N-[2-(cyclobutyloxy)ethyl]-4-methyl-2-({1-[4-(trifluoromethoxy)benzoyl]azetidin-3-yl}methyl)-2H-indazole-5-carboxamide], with above 50 nM; and `Cc1c(C(=O)NCCOCC2CC2)ccc2nn(CC3CN(C(=O)c4ccc(Cl)cc4)C3)cc12` [Example E102, 2-{[1-(4-chlorobenzoyl)azetidin-3-yl]methyl}-N-[2-(cyclopropylmethoxy)ethyl]-4-methyl-2H-indazole-5-carboxamide], with above 50 nM. Then `Cc1c(C(=O)NCCOCC2CC2)ccc2nn(CC3CN(C(=O)c4ccc(Oc5ccc(F)cc5)cc4)C3)cc12` [Example E103, N-[2-(cyclopropylmethoxy)ethyl]-2-({1-[4-(4-fluorophenoxy)benzoyl]azetidin-3-yl}-methyl)-4-methyl-2H-indazole-5-carboxamide], with above 50 nM. In the case of `Cc1ccc(C(=O)N2CC(Cn3cc4c(C)c(C(=O)NCCOCC5CC5)ccc4n3)C2)cc1` [Example E104, N-[2-(cyclopropylmethoxy)ethyl]-4-methyl-2-{[1-(4-methylbenzoyl)azetidin-3-yl]-methyl}-2H-indazole-5-carboxamide], the IC50 was above 50 nM.

In turn, `Cc1c(C(=O)NCCOC(F)(F)F)ccc2nn(CC3CN(C(=O)c4ccc(Cl)cc4)C3)cc12` [Example E105, 2-{[1-(4-chlorobenzoyl)azetidin-3-yl]methyl}-4-methyl-N-[2-(trifluoromethoxy)ethyl]-2H-indazole-5-carboxamide] showed an IC50 above 50 nM. On to `Cc1c(C(=O)NCCOCC2CC2)ccc2nn(CC3CN(C(=O)c4ccc(-c5ccc(F)cc5)cc4)C3)cc12` [Example E107, N-[2-(cyclopropylmethoxy)ethyl]-2-({1-[(4′-fluorobiphenyl-4-yl)carbonyl]azetidin-3-yl}methyl)-4-methyl-2H-indazole-5-carboxamide], for which the IC50 was above 50 nM. Then `COCCNC(=O)c1ccc2nn(CC3CN(C(=O)c4ccc(-c5ccc(F)cc5)cc4)C3)cc2c1C` [Example E108, 2-({1-[(4′-fluorobiphenyl-4-yl)carbonyl]azetidin-3-yl}methyl)-N-(2-methoxyethyl)-4-methyl-2H-indazole-5-carboxamide], with above 50 nM; and `COCCNC(=O)c1ccc2nn(CC3CN(C(=O)c4ccc(Oc5ccc(F)cc5)cc4)C3)cc2c1C` [Example E109, 2-({1-[4-(4-fluorophenoxy)benzoyl]azetidin-3-yl}methyl)-N-(2-methoxyethyl)-4-methyl-2H-indazole-5-carboxamide], with above 50 nM; and `Cc1c(C(=O)NCCOCC(F)(F)F)ccc2nn(CC3CN(C(=O)c4ccc(Cl)cc4)C3)cc12` [Example E112, 2-{[1-(4-chlorobenzoyl)azetidin-3-yl]methyl}-4-methyl-N-[2-(2,2,2-trifluoroethoxy)-ethyl]-2H-indazole-5-carboxamide], with above 50 nM. Then `Cc1c(C(=O)NCCOCC(F)(F)F)ccc2nn(CC3CN(C(=O)c4ccc(Oc5ccc(C(F)(F)F)cc5)cc4)C3)cc12` [Example E113, 4-methyl-N-[2-(2,2,2-trifluoroethoxy)ethyl]-2-[(1-{4-[4-(trifluoromethyl)phenoxy]-benzoyl}azetidin-3-yl)methyl]-2H-indazole-5-carboxamide], with above 50 nM. On to `Cc1c(C(=O)NCC(F)(F)F)ccc2nn(CC3CN(C(=O)c4ccc(Oc5ccc(C(F)(F)F)cc5)cc4)C3)cc12` [Example E114, 4-methyl-N-(2,2,2-trifluoroethyl)-2-[(1-{4-[4-(trifluoromethyl)phenoxy]benzoyl}-azetidin-3-yl)methyl]-2H-indazole-5-carboxamide], for which the IC50 was above 50 nM.

In turn, `Cc1c(C(=O)NCC(F)(F)F)ccc2nn(CC3CN(C(=O)c4ccc(Oc5ccc(Cl)cc5)cc4)C3)cc12` [Example E115, 2-({1-[4-(4-chlorophenoxy)benzoyl]azetidin-3-yl}methyl)-4-methyl-N-(2,2,2-trifluoro-ethyl)-2H-indazole-5-carboxamide] came in with an IC50 above 50 nM. Then `COCCNC(=O)c1ccc2nn(CC3CN(C(=O)c4ccc(Oc5ccc(Cl)cc5)cc4)C3)cc2c1C` [Example E116, 2-({1-[4-(4-chlorophenoxy)benzoyl]azetidin-3-yl}methyl)-N-(2-methoxyethyl)-4-methyl-2H-indazole-5-carboxamide], with above 50 nM.
